{
  "source": "patent US6426329B1",
  "about": "“Immunosuppressant activity of insulin-like growth factor I (IGF-I)” (Fujisawa Pharmaceutical Co., Ltd., priority 1997, dated 2002)",
  "key": {"[1]": {"system": "IGF-I", "experiment": "IGF-I producing action of FK506 (liver and blood IGF-I by rat IGF-I RIA kit after 7 days oral dosing)", "assay_type": "in vivo", "details": "male SD rats; for increase of blood concentration of IGF-I / increase of concentration of IGF-I in the liver: 0.5 hour after final dose", "protocol": "Male SD rats aged 6 weeks were orally dosed with FK506 once daily for 7 consecutive days, and at 0.5 hour following the final dose, the liver and blood were isolated. The blood IGF-I concentration was measured by acid-ethanol extraction and subsequent assay with a rat IGF-I RIA kit (DSL). The hepatic IGF-I level was measured by acetic acid extraction and subsequent assay with the rat IGF-I RIA kit. Five rats per group were used."}, "[2]": {"system": "Bile secretions", "experiment": "Choleretic action of FK506 and synergistic action of IGF-I (bile secretion in bile duct-cannulated anesthetized rats)", "assay_type": "in vivo, rat", "details": "for effect on choleresis (in words): summary of Table 2 data, IGF-I in combination with FK506", "protocol": "Using male SD rats (6 weeks old) under urethane anesthesia (1.2 g/5 ml/kg), a midline incision was made in the abdominal region. Ligation was performed at the lower part of the common bile duct and a polyethylene tube (PE10, Intramedics) was inserted from above and ligated in position. The bile was thus withdrawn extracorporeally and pooled. The rat was kept warm on a hot plate at 37° C. and the volume of the bile withdrawn-was measured at 30-min intervals. […] As to FK506, FK506 Inj. (1P mg/1 ml vial) was used. Rats in the control group received saline both intravenously and subcutaneously. The bile was collected up to 180min after medication. As the baseline secretions, the average of the values at 2 points of time immediately preceding drug administration was used."}, "[3]": {"system": "Bile secretions", "experiment": "Anticholeretic action of CsA and antagonizing action of IGF-I (bile secretion in bile duct-cannulated anesthetized rats)", "assay_type": "in vivo, rat", "protocol": "Using male SD rats (7 weeks old) under urethane anesthesia (1.2 g/5 ml/kg), a midline incision was made in the abdominal region. Ligation was performed at the lower part of the common bile duct and a polyethylene tube (PE10, Intramedics) was inserted from above and ligated in position. The bile was thus withdrawn extracorporeally and pooled. The rat was kept warm on a hot plate at 37° C. and the volume of the bile withdrawn was measured at 30-min intervals. […] (250 mg/5 ml vial) was diluted with saline. Rats in the control group received saline both intravenously and subcutaneously. The bile was collected up to 180 min after drug administration. As the baseline secretions, the average of the values at 2 points of time immediately preceding drug administration was used."}, "[4]": {"details": "FK506 1 mg/kg orally once daily for 7 days"}, "[5]": {"details": "FK506 10 mg/kg orally once daily for 7 days"}, "[6]": {"details": "Before administration (baseline)"}, "[7]": {"details": "Before administration (baseline), Mean ± S.E."}},
  "data": [
    {"molecule": "C=CC[C@@H]1/C=C(\\C)C[C@H](C)C[C@H](OC)[C@H]2O[C@@](O)(C(=O)C(=O)N3CCCC[C@H]3C(=O)O[C@H](/C(C)=C/[C@@H]3CC[C@@H](O)[C@H](OC)C3)[C@H](C)[C@@H](O)CC1=O)[C@H](C)C[C@@H]2OC", "note": "[FK506, 17-allyl-1,14-dihydroxy-12-[2-(4-hydroxy-3-methoxycyclohexyl)-1-methylvinyl]-23,25-dimethoxy-13,19,21,27-tetramethyl-11,28-dioxa-4-azatricyclo[22.3.1.0^4,9] octacos-18-ene-2,3,10,16-tetraone]", "values": [
      {"measurement": "increase of blood concentration of IGF-I", "setting": "[1]; [4]", "value": 14, "unit": "%"},
      {"measurement": "increase of concentration of IGF-I in the liver", "setting": "[1]; [4]", "value": 28, "unit": "%"},
      {"measurement": "increase of blood concentration of IGF-I", "setting": "[1]; [5]", "value": 11, "unit": "%"},
      {"measurement": "increase of concentration of IGF-I in the liver", "setting": "[1]; [5]", "value": 26, "unit": "%"},
      {"measurement": "IGF-I producing activity (in words)", "setting": "[1]; liver", "value": "express IGF-I producing activity in the liver"},
      {"measurement": "effect on choleresis (in words)", "setting": "[2]", "value": "has a choleretic action"}
    ]},
    {"molecule": "IGF-I: insulin-like growth factor I (IGF-I), dissolved in saline, given subcutaneously", "values": [
      {"measurement": "Bile secretions, % of preadministration baseline", "setting": "[3]; 0˜30 min after administration, CsA 10 mg/kg i.v., IGF-I 10 mg/kg s.c.", "value": "(109) %"},
      {"measurement": "Bile secretions, % of preadministration baseline", "setting": "[3]; 30˜60 min after administration, CsA 10 mg/kg i.v., IGF-I 10 mg/kg s.c.", "value": "(121) %"},
      {"measurement": "Bile secretions, % of preadministration baseline", "setting": "[3]; 60˜90 min after administration, CsA 10 mg/kg i.v., IGF-I 10 mg/kg s.c.", "value": "(124) %"},
      {"measurement": "Bile secretions, % of preadministration baseline", "setting": "[3]; 90˜120 min after administration, CsA 10 mg/kg i.v., IGF-I 10 mg/kg s.c.", "value": "(118) %"},
      {"measurement": "Bile secretions, % of preadministration baseline", "setting": "[3]; 120˜150 min after administration, CsA 10 mg/kg i.v., IGF-I 10 mg/kg s.c.", "value": "(121) %"},
      {"measurement": "Bile secretions, % of preadministration baseline", "setting": "[3]; 150˜180 min after administration, CsA 10 mg/kg i.v., IGF-I 10 mg/kg s.c.", "value": "(118) %"},
      {"measurement": "Bile secretions, % of preadministration baseline", "setting": "[3]; [6]", "value": "(100) %"},
      {"measurement": "Bile secretions", "setting": "[3]; [7]", "value": "0.33 ± 0.03", "unit": "ml/30 min"},
      {"measurement": "effect on choleresis (in words)", "setting": "[3]; summary of Table 1 data, IGF-I in combination with CsA", "value": "enhances choleresis"},
      {"measurement": "Bile secretions, % of preadministration baseline", "setting": "[2]; 0˜30 min after administration, 10 mg/kg i.v. immunosuppressant, IGF-I 10 mg/kg s.c.", "value": "(109) %"},
      {"measurement": "Bile secretions, % of preadministration baseline", "setting": "[2]; 30˜60 min after administration, 10 mg/kg i.v. immunosuppressant, IGF-I 10 mg/kg s.c.", "value": "(117) %"},
      {"measurement": "Bile secretions, % of preadministration baseline", "setting": "[2]; 60˜90 min after administration, 10 mg/kg i.v. immunosuppressant, IGF-I 10 mg/kg s.c.", "value": "(120) %"},
      {"measurement": "Bile secretions, % of preadministration baseline", "setting": "[2]; 90˜120 min after administration, 10 mg/kg i.v. immunosuppressant, IGF-I 10 mg/kg s.c.", "value": "(120) %"},
      {"measurement": "Bile secretions, % of preadministration baseline", "setting": "[2]; 120˜150 min after administration, 10 mg/kg i.v. immunosuppressant, IGF-I 10 mg/kg s.c.", "value": "(123) %"},
      {"measurement": "Bile secretions, % of preadministration baseline", "setting": "[2]; 150˜180 min after administration, 10 mg/kg i.v. immunosuppressant, IGF-I 10 mg/kg s.c.", "value": "(114) %"},
      {"measurement": "Bile secretions, % of preadministration baseline", "setting": "[2]; [6]", "value": "(100) %"},
      {"measurement": "Bile secretions", "setting": "[2]; [7]", "value": "0.35 ± 0.01", "unit": "ml/30 min"},
      {"measurement": "effect on choleresis (in words)", "setting": "[2]", "value": "enhances choleresis"}
    ]}
  ]
}
